The values below are quoted from earlier work in patent US20220313614A1, “EN[…] […] AND METHODS OF PREPARATION THEREOF” (Altria Client Services LLC, priority 2021, published 2022).

Each structure is given as a SMILES string.

The conditions of the data set: free base (non-protonated).

Consider `CN1CCCC1c1cccnc1` (stereo not shown) [Free-base nicotine, 3-(1-methyl-2-pyrrolidinyl) pyridine], for which the pKa value entry is listed as “about 8”.
